Measurements published in ChEMBL document CHEMBL1146390, “Cytotoxic acylated Spermidine from a soft coral, Sinularia sp” (1997).
≈ marks a conversion by molar mass, not a printed value.

Test system: P388
Assay: Cytotoxicity against mouse P388 cells
Format: functional
Conditions: read-out: ED50 (the source's name)

**Q.** `CCCCCCCCCC(C)/C=C/CC(=O)NCCCN(C)CCCCN(C)C` (stereo unspecified) was tested. Which EC50 did it give?
**A.** Its EC50 is 0.04 µg/mL (≈ 0.0976 µM).
